Structures can show the parent of a compound that is named as a salt. Where two headings read alike, the source gives them in different places.
Tested on: Dengue-2 (Strain New Guinea C)
Experiment: Viral yield assay against Dengue-2 in Vero cells
Type: cell-based, Dengue virus
Details: Dengue virus, read-out: Activity (EC50 class) against Dengue-2 Virus in Vero cells
Protocol: Compounds that were active in the primary screen were tested for activity in viral yield assays. […] Vero cells in 12-well plates were infected with dengue-2 virus at a multiplicity of infection (MOI) of 0.1, treated with compound (or DMSO as a control), incubated at 37° C., harvested 48 hours post infection and titered on Vero cells as described above. The EC50 was calculated through ExcelFit. Activities against other serotypes of dengue virus were determined in a similar way.

[1] = Vero cells, MOI 0.1, harvested 48 hours post infection

Row | Structure (SMILES) | EC50 [1] [µM] | EC50 (Vero, 48 h) [µM]
1 | CN1CCc2nc3sc(C(=O)Nc4ccc(Cl)cc4)c(N)c3c(-c3cccs3)c2C1 [Compound 36, 3-Amino-6-methyl-4-thiophen-2-yl-5,6,7,8-tetrahydro-thieno[2,3-b][1,6]naphthyridine-2-carboxylic acid (4-chloro-phenyl)-amide] | < 5 | –
2 | COc1ccc(Cl)cc1NC(=O)c1sc2nc3c(cc2c1N)CN(C)CC3 [Compound 37, 3-Amino-6-methyl-5,6,7,8-tetrahydro-thieno[2,3-b][1,6]naphthyridine-2-carboxylic acid (5-chloro-2-methoxy-phenyl)-amide] | < 5 | –
3 | CN1CCc2nc3sc(C(=O)Nc4ccccc4F)c(N)c3cc2C1 [Compound 38, 3-Amino-6-methyl-5,6,7,8-tetrahydro-thieno[2,3-b][1,6]naphthyridine-2-carboxylic acid (2-fluoro-phenyl)-amide] | < 5 | –
4 | Cc1csc(NC(=O)c2sc3nc4c(cc3c2N)CN(C)CC4)n1 [Compound 39, 3-Amino-6-methyl-5,6,7,8-tetrahydro-thieno[2,3-b][1,6]naphthyridine-2-carboxylic acid (4-methyl-thiazol-2-yl)-amide] | < 5 | –
5 | CCN1CCc2nc3sc(C(=O)Nc4ccccc4OC(F)(F)F)c(N)c3cc2C1 [Compound 40, 3-Amino-6-ethyl-5,6,7,8-tetrahydro-thieno[2,3-b][1,6]naphthyridine-2-carboxylic acid (2-trifluoromethoxy-phenyl)-amide] | < 5 | –
6 | CCN1CCc2nc3sc(C(=O)Nc4cccnc4Cl)c(N)c3cc2C1 [Compound 41, 3-Amino-6-ethyl-5,6,7,8-tetrahydro-thieno[2,3-b][1,6]naphthyridine-2-carboxylic acid (2-chloro-pyridin-3-yl)-amide] | – | < 5
7 | CN1CCc2nc3sc(C(=O)Nc4ccc(C(F)(F)F)cc4)c(N)c3cc2C1 [Compound 42, 3-Amino-6-methyl-5,6,7,8-tetrahydro-thieno[2,3-b][1,6]naphthyridine-2-carboxylic acid (4-trifluoromethyl-phenyl)-amide] | < 5 | –
8 | CC(=O)c1ccc(NC(=O)c2sc3nc4c(cc3c2N)CN(C)CC4)cc1 [Compound 43, 3-Amino-6-methyl-5,6,7,8-tetrahydro-thieno[2,3-b][1,6]naphthyridine-2-carboxylic acid (4-acetyl-phenyl)-amide] | < 5 | –
9 | CN1CCc2nc3sc(C(=O)Nc4cc(Cl)ccc4Cl)c(N)c3cc2C1 [Compound 44, 3-Amino-6-methyl-5,6,7,8-tetrahydro-thieno[2,3-b][1,6]naphthyridine-2-carboxylic acid (2,5-dichloro-phenyl)-amide] | < 5 | –
10 | Cc1ccc(NC(=O)c2sc3nc4c(cc3c2N)CN(C)CC4)cc1Cl [Compound 45, 3-Amino-6-methyl-5,6,7,8-tetrahydro-thieno[2,3-b][1,6]naphthyridine-2-carboxylic acid (3-chloro-4-methyl-phenyl)-amide] | < 5 | –
11 | CN1CCc2nc3sc(C(=O)Nc4cccnc4Cl)c(N)c3cc2C1 [Compound 46, 3-Amino-6-methyl-5,6,7,8-tetrahydro-thieno[2,3-b][1,6]naphthyridine-2-carboxylic acid (2-chloro-pyridin-3-yl)-amide] | < 5 | –
12 | CC(NC(=O)c1sc2nc3c(cc2c1N)CN(C)CC3)[C@]12C[C@H]3C[C@H](C[C@H](C3)C1)C2 (stereo partly shown) [Compound 47, 3-Amino-6-methyl-5,6,7,8-tetrahydro-thieno[2,3-b][1,6]naphthyridine-2-carboxylic acid (1-adamantan-1-yl-ethyl)-amide] | < 5 | –
13 | CN1CCc2nc3sc(C(=O)Nc4ccccc4)c(N)c3cc2C1 [Compound 48, 3-Amino-6-methyl-5,6,7,8-tetrahydro-thieno[2,3-b][1,6]naphthyridine-2-carboxylic acid phenylamide] | < 5 | –
14 | CN1CCc2nc3sc(C(=O)Nc4ccccc4)c(N)c3c(-c3ccccc3)c2C1 [Compound 49, 3-Amino-6-methyl-4-phenyl-5,6,7,8-tetrahydro-thieno[2,3-b][1,6]naphthyridine-2-carboxylic acid phenylamide] | < 5 | –
15 | COc1ccc(NC(=O)c2sc3nc4c(c(-c5ccccc5)c3c2N)CN(C)CC4)cc1 [Compound 50, 3-Amino-6-methyl-4-phenyl-5,6,7,8-tetrahydro-thieno[2,3-b][1,6]naphthyridine-2-carboxylic acid (4-methoxy-phenyl)-amide] | < 5 | –
16 | CC(=O)c1ccc(NC(=O)c2sc3nc4c(c(-c5ccccc5)c3c2N)CN(C)CC4)cc1 [Compound 51, 3-Amino-6-methyl-4-phenyl-5,6,7,8-tetrahydro-thieno[2,3-b][1,6]naphthyridine-2-carboxylic acid (4-acetyl-phenyl)-amide] | < 5 | –
17 | Nc1c(C(=O)Nc2nnc(-c3ccccc3)s2)sc2nc3c(cc12)CNCCC3 [Compound 52, 3-Amino-6,7,8,9-tetrahydro-5H-1-thia-6,10-diaza-cyclohepta[f]indene-2-carboxylic acid (5-phenyl-[1,3,4]thiadiazol-2-yl)-amide hydrochloride] | < 5 | –

Row | Structure (SMILES) | EC50 [1] [µM] | EC50 (Vero, 48 h) [µM]
18 | Nc1c(C(=O)Nc2nnc(-c3ccccc3)s2)sc2nc3c(cc12)CCCC3 [Compound 53, 3-Amino-5,6,7,8-tetrahydro-thieno[2,3-b]quinoline-2-carboxylic acid (5-phenyl-[1,3,4]thiadiazol-2-yl)-amide] | < 5 | –
19 | COc1ccc(-c2cc(-c3ccc(F)cc3)nc3sc(C(N)=O)c(N)c23)cc1OC [Compound 54, 3-Amino-4-(3,4-dimethoxy-phenyl)-6-(4-fluoro-phenyl)-thieno[2,3-b]pyridine-2-carboxylic acid amide] | < 5 | –
20 | Cc1csc(NC(=O)c2sc3nc(-c4cccs4)ccc3c2N)n1 [Compound 55, 3-Amino-6-thiophen-2-yl-thieno[2,3-b]pyridine-2-carboxylic acid (4-methyl-thiazol-2-yl)amide] | – | < 5
21 | CC(=O)N1CCc2nc3sc(C(=O)Nc4ccc(C(C)(C)C)cc4)c(N)c3c(C(F)(F)F)c2C1 [Compound 56, 6-Acetyl-3-amino-4-trifluoromethyl-5,6,7,8-tetrahydro-thieno[2,3-b][1,6]naphthyridine-2-carboxylic acid (4-tert-butyl-phenyl)-amide] | < 5 | –
22 | CCOC(=O)c1c(NC(=O)c2sc3nc4c(cc3c2N)CN(C)CC4)sc2c1CCCC2 [Compound 57, 2-[(3-Amino-6-methyl-5,6,7,8-tetrahydro-thieno[2,3-b][1,6]naphthyridine-2-carbonyl)-amino]-4,5,6,7-tetrahydro-benzo[b]thiophene-3-carboxylic acid ethyl ester] | < 5 | –
23 | COc1ccccc1NC(=O)c1sc2nc3c(cc2c1N)CN(C)CC3 [Compound 58, 3-Amino-6-methyl-5,6,7,8-tetrahydro-thieno[2,3-b][1,6]naphthyridine-2-carboxylic acid (2-methoxy-phenyl)-amide] | < 5 | –
24 | CC(C)N1CCc2nc3sc(C(=O)Nc4ccc(OC(F)(F)F)cc4)c(N)c3cc2C1 [Compound 59, 3-Amino-6-isopropyl-5,6,7,8-tetrahydro-thieno[2,3-b][1,6]naphthyridine-2-carboxylic acid (4-trifluoromethoxy-phenyl)-amide] | < 5 | –
25 | CC(C)N1CCc2nc3sc(C(=O)Nc4ccc(C(F)(F)F)cc4)c(N)c3cc2C1 [Compound 60, 3-Amino-6-isopropyl-5,6,7,8-tetrahydro-thieno[2,3-b][1,6]naphthyridine-2-carboxylic acid (4-trifluoromethyl-phenyl)-amide] | < 5 | –
26 | Cc1ccc(F)cc1NC(=O)c1sc2nc3c(cc2c1N)CN(C)CC3 [Compound 61, 3-Amino-6-methyl-5,6,7,8-tetrahydro-thieno[2,3-b][1,6]naphthyridine-2-carboxylic acid (5-fluoro-2-methyl-phenyl)-amide] | < 5 | –
27 | CN1CCc2nc3sc(C(=O)Nc4nc5ccccc5s4)c(N)c3cc2C1 [Compound 62, 3-Amino-6-methyl-5,6,7,8-tetrahydro-thieno[2,3-b][1,6]naphthyridine-2-carboxylic acid benzothiazol-2-ylamide] | < 5 | –
28 | CN1CCc2nc3sc(C(=O)Nc4cc(Br)ccc4Br)c(N)c3cc2C1 [Compound 63, 3-Amino-6-methyl-5,6,7,8-tetrahydro-thieno[2,3-b][1,6]naphthyridine-2-carboxylic acid (2,5-dibromo-phenyl)-amide] | < 5 | –
29 | CN1CCc2nc3sc(C(=O)Nc4ccc(Cl)cc4)c(N)c3c(-c3ccccc3)c2C1 [Compound 64, 3-Amino-6-methyl-4-phenyl-5,6,7,8-tetrahydro-thieno[2,3-b][1,6]naphthyridine-2-carboxylic acid (4-chloro-phenyl)-amide] | < 5 | –
30 | CCc1nnc(NC(=O)c2sc3nc(C)cc(C(F)(F)F)c3c2N)s1 [Compound 65, 3-Amino-6-methyl-4-trifluoromethyl-thieno[2,3-b]pyridine-2-carboxylic acid (5-ethyl-[1,3,4]thiadiazol-2-yl)-amide] | 5 to 25 | –
31 | Nc1c(C(=O)Nc2ccccc2)sc2nc(-c3ccccc3)cc(-c3ccccc3)c12 [Compound 66, 3-Amino-4,6-diphenyl-thieno[2,3-b]pyridine-2-carboxylic acid phenylamide] | 5 to 25 | –
32 | COc1ccccc1-c1cc(-c2ccccc2)c2c(N)c(C(=O)NC3CC3)sc2n1 [Compound 67, 3-Amino-6-(2-methoxy-phenyl)-4-phenyl-thieno[2,3-b]pyridine-2-carboxylic acid cyclopropylamide] | 5 to 25 | –
33 | COCc1cc(C)c2c(N)c(C(N)=O)sc2n1 [Compound 68, 3-Amino-6-methoxymethyl-4-methyl-thieno[2,3-b]pyridine-2-carboxylic acid amide] | 5 to 25 | –
34 | N#Cc1cc2c(N)c(C(=O)N(c3ccccc3)c3ccccc3)sc2nc1N [Compound 69, 3,6-Diamino-5-cyano-thieno[2,3-b]pyridine-2-carboxylic acid diphenylamide] | 5 to 25 | –

— patent US20170121344A1 (Siga Technologies, Inc., priority 2009, published 2017)
